Measurements taken from patent US8592415B2, “Selective kinase inhibitors” (Reaction Biology Corp., priority 2009, dated 2013).
pIC50: −log10 of the molar value.

Each molecule was assayed against JAK3 (Homo sapiens (Human), UniProt P52333) (assay: In vitro JAK kinase enzymatic assay (JAK3)).
Chain of JAK3 (P52333 781-1124): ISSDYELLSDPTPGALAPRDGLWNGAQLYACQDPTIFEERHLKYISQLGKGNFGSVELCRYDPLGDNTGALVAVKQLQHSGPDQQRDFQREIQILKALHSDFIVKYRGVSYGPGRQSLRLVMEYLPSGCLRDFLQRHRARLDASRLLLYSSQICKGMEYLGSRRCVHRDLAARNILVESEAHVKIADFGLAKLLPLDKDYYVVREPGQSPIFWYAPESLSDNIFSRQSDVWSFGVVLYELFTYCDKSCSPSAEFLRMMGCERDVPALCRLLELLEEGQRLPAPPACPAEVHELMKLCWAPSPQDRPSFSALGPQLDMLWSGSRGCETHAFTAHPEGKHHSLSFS
Format: biochemical
Protocol: (§1) The JAK3 kinase is recombinant human protein (catalytic domain, amino acids 781-1124 with GST-tag), expressed in insect cells (Invitrogen Catalog PV3855). The substrate is poly-glutamic acid-tyrosin peptide, Poly-(GT) (4:1) (Sigma-Aldrich, catalog P7244). [γ-^33P]-ATP is purchased from Perkin Elmer (catalog NEG602H001MC) (EasyTides). Kinase reaction buffer is 100 mM HEPES (pH 7.5), 20 mM MgCl2, 2 mM EGTA, 0.02% Brij 35. The JAK1 (Invitrogen Catalog PV4774), JAK2 (Invitrogen Catalog PV4210) and TYK2 Invitrogen Catalog PV4790) enzymatic assays are performed in the similar way. JAK1 and JAK2 substrate is Poly-(GT) (4:1), but TYK2 substrate is peptide with sequences of […]. The reaction is carried for 2 hours at room temperature. After the reactions are finished or stopped, portion or all the reaction mixtures are transferred onto filter paper P81 Phosphocellulose paper (Whatman catalog 3698-915) for binding the final radioisotope labeled products. The unreacted phosphate are washed away without interfering with the detection of real phosphorylated products. The final product can be detected by instruments such as scintillation counter, top counter or phosphoimager. The enzymatic assays can also performed in assays described those described in the art [e.g., Ma H et al, Expert Opin. Drug Discov. 3, 607-621 (2008); Olive D M, Expert Rev Proteomics, 1, 327-341 (2004)].
(§2) Signal=Bottom+(Top−Bottom)/(1+10^((Log(IC50)−Log [I])*Hill Slope) Bottom and Top refer to the post and pre-transition baselines, respectively.
`CC(Nc1cccc(-c2cnc3ccccc3n2)c1)=C1CCOC1=O` (racemic) [Example 31, (E/Z)-3-(1-(3-(quinoxalin-2-yl)phenylamino)ethylidene)dihydrofuran-2(3H)-one] was tested, and the pIC50 was < 5.00. With `CN(C)CC(=O)Nc1cccc(-c2cnc3ccccc3n2)c1` [Example 2, N^2,N^2-dimethyl-N^1-(3-quinoxalin-2-ylphenyl)glycinamide] the pIC50 was < 4.30. `O=C(CN1CCCC1)Nc1cccc(-c2cnc3ccccc3n2)c1` [Example 3, 2-pyrrolidin-1-yl-N-(3-quinoxalin-2-ylphenyl)acetamide] was tested, and the pIC50 was < 4.70. For `O=C(CCCCl)Nc1cccc(-c2cnc3ccccc3n2)c1` [Example 5, 4-chloro-N-[3-(quinoxalin-2-yl)phenyl]butanamide], the pIC50 was < 4.30. With `O=C(Cn1cncn1)Nc1cccc(-c2cnc3ccccc3n2)c1` [Example 7, N-[3-(quinoxalin-2-yl)phenyl]-2-(1H-1,2,4-triazol-1-yl)acetamide] the pIC50 was < 4.30. In the case of `COc1ccc(NC(=O)Nc2cccc(-c3cnc4ccccc4n3)c2)cc1` [Example 10, 1-(4-methoxyphenyl)-3-[3-(quinoxalin-2-yl)phenyl]urea], the pIC50 was < 4.30. In the case of `O=C(Nc1cccc(-c2cnc3ccccc3n2)c1)c1ccco1` [Example 12, N-[3-(quinoxalin-2-yl)phenyl]furan-2-carboxamide], the pIC50 was < 4.30. `CS(=O)(=O)Nc1cccc(-c2cnc3ccccc3n2)c1` [Example 15, N-[3-(quinoxalin-2-yl)phenyl]methanesulfonamide] was tested, and the pIC50 was < 4.30. With `CN1CCN(CC(=O)Nc2cccc(-c3cnc4ccccc4n3)c2)CC1` [Example 17, 2-(4-methylpiperazin-1-yl)-N-[3-(quinoxalin-2-yl)phenyl]acetamide] the pIC50 was < 4.30. In the case of `O=C(CN1CCOCC1)Nc1cccc(-c2cnc3ccccc3n2)c1` [Example 20, 2-morpholino-N-(3-(quinoxalin-2-yl)phenyl)acetamide], the pIC50 was 4.47. For `C=CCC(=O)Nc1cccc(-c2cnc3ccccc3n2)c1` [Example 23, N-(3-(quinoxalin-2-yl)phenyl)but-3-enamide], the pIC50 was < 5.00. `CSCC(=O)Nc1cccc(-c2cnc3ccccc3n2)c1` [Example 25, 2-(methylthio)-N-(3-(quinoxalin-2-yl)phenyl)acetamide] was tested, and the pIC50 was < 5.00. In the case of `O=C(CC(=O)C(F)(F)F)Nc1cccc(-c2cnc3ccccc3n2)c1` [Example 26, 4,4,4-trifluoro-3-oxo-N-(3-(quinoxalin-2-yl)phenyl)butanamide], the pIC50 was < 5.00. Work on `CS(=O)(=O)OCC(=O)Nc1cccc(-c2cnc3ccccc3n2)c1` [Example 27, 2-oxo-2-(3-(quinoxalin-2-yl)phenylamino)ethyl methanesulfonate] yielded a pIC50 of 9.22. `CC(=O)OCC(=O)Nc1cccc(-c2cnc3ccccc3n2)c1` [Example 28, 2-oxo-2-(3-(quinoxalin-2-yl)phenylamino)ethyl acetate] showed a pIC50 of 3.82. “N-[3-(quinoxalin-2-yl)phenyl]cyclopropanecarboxamide [Example 14]” was tested, and the pIC50 was < 4.30.

Each molecule was assayed against TYK2 (Homo sapiens (Human), UniProt P29597) (assay: In vitro JAK kinase enzymatic assay (TYK2)).
Chain of TYK2 (P29597 whole entry): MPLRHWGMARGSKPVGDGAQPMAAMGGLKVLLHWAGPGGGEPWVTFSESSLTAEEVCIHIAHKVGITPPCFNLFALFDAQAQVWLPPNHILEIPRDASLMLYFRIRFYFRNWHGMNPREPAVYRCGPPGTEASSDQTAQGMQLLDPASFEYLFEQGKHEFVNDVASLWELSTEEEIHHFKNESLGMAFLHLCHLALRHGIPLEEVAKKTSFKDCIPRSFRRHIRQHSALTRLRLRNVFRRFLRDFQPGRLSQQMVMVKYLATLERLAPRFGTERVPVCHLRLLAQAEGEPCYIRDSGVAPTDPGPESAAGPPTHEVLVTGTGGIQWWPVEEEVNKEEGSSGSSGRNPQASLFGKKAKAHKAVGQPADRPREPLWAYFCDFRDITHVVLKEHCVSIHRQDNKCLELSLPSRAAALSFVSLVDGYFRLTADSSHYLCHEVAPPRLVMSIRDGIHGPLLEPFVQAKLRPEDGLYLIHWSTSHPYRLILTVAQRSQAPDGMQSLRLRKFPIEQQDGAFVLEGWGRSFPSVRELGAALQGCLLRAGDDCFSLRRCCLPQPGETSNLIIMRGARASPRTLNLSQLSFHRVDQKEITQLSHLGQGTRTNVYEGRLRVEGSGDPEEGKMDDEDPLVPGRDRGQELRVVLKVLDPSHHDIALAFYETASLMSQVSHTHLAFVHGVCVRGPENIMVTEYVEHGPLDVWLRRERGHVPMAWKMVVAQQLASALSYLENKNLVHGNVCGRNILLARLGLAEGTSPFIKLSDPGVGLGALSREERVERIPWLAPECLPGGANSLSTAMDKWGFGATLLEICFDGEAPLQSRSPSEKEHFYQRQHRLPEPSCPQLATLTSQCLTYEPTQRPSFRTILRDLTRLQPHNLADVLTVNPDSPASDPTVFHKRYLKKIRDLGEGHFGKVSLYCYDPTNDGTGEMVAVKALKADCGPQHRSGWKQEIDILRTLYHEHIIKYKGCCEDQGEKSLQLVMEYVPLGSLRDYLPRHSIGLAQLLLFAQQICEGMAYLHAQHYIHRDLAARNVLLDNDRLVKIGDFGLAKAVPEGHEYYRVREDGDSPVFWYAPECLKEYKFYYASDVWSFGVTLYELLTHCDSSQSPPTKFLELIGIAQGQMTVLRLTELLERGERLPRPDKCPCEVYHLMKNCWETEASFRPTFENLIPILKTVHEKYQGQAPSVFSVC
Format: biochemical
Protocol: as §1, §2
In the case of `CC(Nc1cccc(-c2cnc3ccccc3n2)c1)=C1CCOC1=O` (racemic) [Example 31, (E/Z)-3-(1-(3-(quinoxalin-2-yl)phenylamino)ethylidene)dihydrofuran-2(3H)-one], the pIC50 was < 5.00. For `CN(C)CC(=O)Nc1cccc(-c2cnc3ccccc3n2)c1` [Example 2, N^2,N^2-dimethyl-N^1-(3-quinoxalin-2-ylphenyl)glycinamide], the pIC50 was < 4.30. `O=C(CN1CCCC1)Nc1cccc(-c2cnc3ccccc3n2)c1` [Example 3, 2-pyrrolidin-1-yl-N-(3-quinoxalin-2-ylphenyl)acetamide] was tested, and the pIC50 was < 4.70. `O=C(CCCCl)Nc1cccc(-c2cnc3ccccc3n2)c1` [Example 5, 4-chloro-N-[3-(quinoxalin-2-yl)phenyl]butanamide] was tested, and the pIC50 was < 4.30. For `O=C(Cn1cncn1)Nc1cccc(-c2cnc3ccccc3n2)c1` [Example 7, N-[3-(quinoxalin-2-yl)phenyl]-2-(1H-1,2,4-triazol-1-yl)acetamide], the pIC50 was < 4.30. In the case of `COc1ccc(NC(=O)Nc2cccc(-c3cnc4ccccc4n3)c2)cc1` [Example 10, 1-(4-methoxyphenyl)-3-[3-(quinoxalin-2-yl)phenyl]urea], the pIC50 was < 4.30. For `O=C(Nc1cccc(-c2cnc3ccccc3n2)c1)c1ccco1` [Example 12, N-[3-(quinoxalin-2-yl)phenyl]furan-2-carboxamide], the pIC50 was < 4.30. In the case of `CS(=O)(=O)Nc1cccc(-c2cnc3ccccc3n2)c1` [Example 15, N-[3-(quinoxalin-2-yl)phenyl]methanesulfonamide], the pIC50 was < 4.30. With `CN1CCN(CC(=O)Nc2cccc(-c3cnc4ccccc4n3)c2)CC1` [Example 17, 2-(4-methylpiperazin-1-yl)-N-[3-(quinoxalin-2-yl)phenyl]acetamide] the pIC50 was < 4.30. `O=C(CN1CCOCC1)Nc1cccc(-c2cnc3ccccc3n2)c1` [Example 20, 2-morpholino-N-(3-(quinoxalin-2-yl)phenyl)acetamide] was tested, and the pIC50 was < 4.30. In the case of `C=CCC(=O)Nc1cccc(-c2cnc3ccccc3n2)c1` [Example 23, N-(3-(quinoxalin-2-yl)phenyl)but-3-enamide], the pIC50 was < 5.00. `CSCC(=O)Nc1cccc(-c2cnc3ccccc3n2)c1` [Example 25, 2-(methylthio)-N-(3-(quinoxalin-2-yl)phenyl)acetamide] was tested, and the pIC50 was < 5.00. For `O=C(CC(=O)C(F)(F)F)Nc1cccc(-c2cnc3ccccc3n2)c1` [Example 26, 4,4,4-trifluoro-3-oxo-N-(3-(quinoxalin-2-yl)phenyl)butanamide], the pIC50 was < 5.00. With `CS(=O)(=O)OCC(=O)Nc1cccc(-c2cnc3ccccc3n2)c1` [Example 27, 2-oxo-2-(3-(quinoxalin-2-yl)phenylamino)ethyl methanesulfonate] the pIC50 was < 5.00. For `CC(=O)OCC(=O)Nc1cccc(-c2cnc3ccccc3n2)c1` [Example 28, 2-oxo-2-(3-(quinoxalin-2-yl)phenylamino)ethyl acetate], the pIC50 was < 5.00. With “N-[3-(quinoxalin-2-yl)phenyl]cyclopropanecarboxamide [Example 14]” the pIC50 was < 4.30.

Each molecule was assayed against JAK2 (assay: In vitro JAK kinase enzymatic assay (JAK2)).
Format: biochemical
Protocol: as §1, with “The” for “The JAK3 kinase is recombinant human protein (catalytic domain, amino acids 781-1124 with GST-tag), expressed in insect cells (Invitrogen Catalog PV3855). The”, “After the reactions are finished or stopped, portion or all the reaction mixtures are transferred onto filter paper P81 Phosphocellulose paper (Whatman catalog 3698-915) for binding the final radioisotope labeled products.” left out, “Discov.” for “Discov. 3, 607-621 (2008); Olive D M, Expert Rev Proteomics, 1, 327-341 (2004)].”
as §2
For `CN(C)CC(=O)Nc1cccc(-c2cnc3ccccc3n2)c1` [Example 2, N^2,N^2-dimethyl-N^1-(3-quinoxalin-2-ylphenyl)glycinamide], the pIC50 was < 4.30. `O=C(CN1CCCC1)Nc1cccc(-c2cnc3ccccc3n2)c1` [Example 3, 2-pyrrolidin-1-yl-N-(3-quinoxalin-2-ylphenyl)acetamide] was tested, and the pIC50 was < 4.70. `O=C(CCCCl)Nc1cccc(-c2cnc3ccccc3n2)c1` [Example 5, 4-chloro-N-[3-(quinoxalin-2-yl)phenyl]butanamide] was tested, and the pIC50 was < 4.30. With `O=C(Cn1cncn1)Nc1cccc(-c2cnc3ccccc3n2)c1` [Example 7, N-[3-(quinoxalin-2-yl)phenyl]-2-(1H-1,2,4-triazol-1-yl)acetamide] the pIC50 was < 4.30. In the case of `COc1ccc(NC(=O)Nc2cccc(-c3cnc4ccccc4n3)c2)cc1` [Example 10, 1-(4-methoxyphenyl)-3-[3-(quinoxalin-2-yl)phenyl]urea], the pIC50 was < 4.30. Work on `O=C(Nc1cccc(-c2cnc3ccccc3n2)c1)c1ccco1` [Example 12, N-[3-(quinoxalin-2-yl)phenyl]furan-2-carboxamide] yielded a pIC50 of 4.61. `CS(=O)(=O)Nc1cccc(-c2cnc3ccccc3n2)c1` [Example 15, N-[3-(quinoxalin-2-yl)phenyl]methanesulfonamide] gave a pIC50 of 4.73. With `CN1CCN(CC(=O)Nc2cccc(-c3cnc4ccccc4n3)c2)CC1` [Example 17, 2-(4-methylpiperazin-1-yl)-N-[3-(quinoxalin-2-yl)phenyl]acetamide] the pIC50 was < 4.30. `O=C(CN1CCOCC1)Nc1cccc(-c2cnc3ccccc3n2)c1` [Example 20, 2-morpholino-N-(3-(quinoxalin-2-yl)phenyl)acetamide] was tested, and the pIC50 was < 4.30. For `C=CCC(=O)Nc1cccc(-c2cnc3ccccc3n2)c1` [Example 23, N-(3-(quinoxalin-2-yl)phenyl)but-3-enamide], the pIC50 was < 5.00. For `CSCC(=O)Nc1cccc(-c2cnc3ccccc3n2)c1` [Example 25, 2-(methylthio)-N-(3-(quinoxalin-2-yl)phenyl)acetamide], the pIC50 was < 5.00. `O=C(CC(=O)C(F)(F)F)Nc1cccc(-c2cnc3ccccc3n2)c1` [Example 26, 4,4,4-trifluoro-3-oxo-N-(3-(quinoxalin-2-yl)phenyl)butanamide] was tested, and the pIC50 was < 5.00. `CS(=O)(=O)OCC(=O)Nc1cccc(-c2cnc3ccccc3n2)c1` [Example 27, 2-oxo-2-(3-(quinoxalin-2-yl)phenylamino)ethyl methanesulfonate] was tested, and the pIC50 was < 5.00. `CC(=O)OCC(=O)Nc1cccc(-c2cnc3ccccc3n2)c1` [Example 28, 2-oxo-2-(3-(quinoxalin-2-yl)phenylamino)ethyl acetate] was tested, and the pIC50 was < 5.00.

What follows are molecules tested against JAK1 (Homo sapiens, UniProt P23458) (assay: In vitro JAK kinase enzymatic assay (JAK1)).
Format: biochemical
Protocol: as §1, §2
With `CC(Nc1cccc(-c2cnc3ccccc3n2)c1)=C1CCOC1=O` (racemic) [Example 31, (E/Z)-3-(1-(3-(quinoxalin-2-yl)phenylamino)ethylidene)dihydrofuran-2(3H)-one] the pIC50 was < 5.00. With `CN(C)CC(=O)Nc1cccc(-c2cnc3ccccc3n2)c1` [Example 2, N^2,N^2-dimethyl-N^1-(3-quinoxalin-2-ylphenyl)glycinamide] the pIC50 was < 4.30. `O=C(CN1CCCC1)Nc1cccc(-c2cnc3ccccc3n2)c1` [Example 3, 2-pyrrolidin-1-yl-N-(3-quinoxalin-2-ylphenyl)acetamide] was tested, and the pIC50 was < 4.70. `O=C(CCCCl)Nc1cccc(-c2cnc3ccccc3n2)c1` [Example 5, 4-chloro-N-[3-(quinoxalin-2-yl)phenyl]butanamide] was tested, and the pIC50 was < 4.30. With `O=C(Cn1cncn1)Nc1cccc(-c2cnc3ccccc3n2)c1` [Example 7, N-[3-(quinoxalin-2-yl)phenyl]-2-(1H-1,2,4-triazol-1-yl)acetamide] the pIC50 was < 4.30. In the case of `COc1ccc(NC(=O)Nc2cccc(-c3cnc4ccccc4n3)c2)cc1` [Example 10, 1-(4-methoxyphenyl)-3-[3-(quinoxalin-2-yl)phenyl]urea], the pIC50 was < 4.30. In the case of `O=C(Nc1cccc(-c2cnc3ccccc3n2)c1)c1ccco1` [Example 12, N-[3-(quinoxalin-2-yl)phenyl]furan-2-carboxamide], the pIC50 was < 4.30. With `CS(=O)(=O)Nc1cccc(-c2cnc3ccccc3n2)c1` [Example 15, N-[3-(quinoxalin-2-yl)phenyl]methanesulfonamide] the pIC50 was < 4.30. In the case of `CN1CCN(CC(=O)Nc2cccc(-c3cnc4ccccc4n3)c2)CC1` [Example 17, 2-(4-methylpiperazin-1-yl)-N-[3-(quinoxalin-2-yl)phenyl]acetamide], the pIC50 was < 4.30. In the case of `O=C(CN1CCOCC1)Nc1cccc(-c2cnc3ccccc3n2)c1` [Example 20, 2-morpholino-N-(3-(quinoxalin-2-yl)phenyl)acetamide], the pIC50 was < 4.30. For `C=CCC(=O)Nc1cccc(-c2cnc3ccccc3n2)c1` [Example 23, N-(3-(quinoxalin-2-yl)phenyl)but-3-enamide], the pIC50 was < 5.00. In the case of `CSCC(=O)Nc1cccc(-c2cnc3ccccc3n2)c1` [Example 25, 2-(methylthio)-N-(3-(quinoxalin-2-yl)phenyl)acetamide], the pIC50 was < 5.00. `O=C(CC(=O)C(F)(F)F)Nc1cccc(-c2cnc3ccccc3n2)c1` [Example 26, 4,4,4-trifluoro-3-oxo-N-(3-(quinoxalin-2-yl)phenyl)butanamide] was tested, and the pIC50 was < 5.00. For `CS(=O)(=O)OCC(=O)Nc1cccc(-c2cnc3ccccc3n2)c1` [Example 27, 2-oxo-2-(3-(quinoxalin-2-yl)phenylamino)ethyl methanesulfonate], the pIC50 was < 5.00. For `CC(=O)OCC(=O)Nc1cccc(-c2cnc3ccccc3n2)c1` [Example 28, 2-oxo-2-(3-(quinoxalin-2-yl)phenylamino)ethyl acetate], the pIC50 was < 5.00. In the case of “N-[3-(quinoxalin-2-yl)phenyl]cyclopropanecarboxamide [Example 14]”, the pIC50 was < 4.30.
